Tested on: Alternaria solani
Test: Test B: tomato early blight, preventive spray on tomato seedlings, visual disease rating
Conditions: tomato early blight, preventive spray; 100 = 100% disease control; rating without asterisk
Experimental: General protocol for preparing test suspensions for Tests A-I: the test compounds were first dissolved in acetone in an amount equal to 3% of the final volume and then suspended at the desired concentration (in ppm) in acetone and purified water (50/50 mix by volume) containing 250 ppm of the surfactant Trem® 014 (polyhydric alcohol esters). The resulting test suspensions were then used in Tests A-I. Each test was conducted in triplicate, and the results were averaged. Spraying a 200 ppm test suspension to the point of run-off on the test plants was the equivalent of a rate of about 800 g/ha. Unless otherwise indicated, the rating values indicate a 200 ppm test suspension was used. (An asterisk “*” next to the rating value indicates a 40 ppm test suspension was used.)
The test suspension was sprayed to the point of run-off on tomato seedlings. The following day the seedlings were inoculated with a spore suspension of Alternaria solani (the causal agent of tomato early blight) and incubated in a saturated atmosphere at 27° C. for 48 h, and then moved to a growth chamber at 20° C. for 5 days, after which time visual disease ratings were made.

Row | SMILES | Test B rating (% disease control) [%]
1 | Cc1nn(C)c(Nc2ccc(F)cc2I)c1-c1ccc(F)cc1Cl [compound 181] | 99
2 | Cc1nn(C)c(Nc2c(F)cc(Cl)cc2I)c1-c1ccc(F)cc1Cl [compound 182] | 100
3 | Cc1nn(C)c(Nc2ccc(Br)cc2Br)c1-c1ccc(F)cc1Cl [compound 183] | 0
4 | Cc1nn(C)c(Nc2ccc(Br)cc2Br)c1-c1ccc(F)cc1F [compound 184] | 58
5 | Cc1nn(C)c(Nc2c(Cl)cc(Cl)cc2I)c1-c1ccc(F)cc1Cl [compound 197] | 77
6 | CCOc1cc(F)c(-c2c(C)nn(C)c2Nc2c(F)cc(Cl)cc2Cl)c(F)c1 [compound 198] | 100
7 | COc1ccc(-c2c(C)nn(C)c2Nc2c(F)cc(Cl)cc2Cl)c(Cl)c1 [compound 201] | 100
8 | CCOc1ccc(-c2c(C)nn(C)c2Nc2c(F)cc(Cl)cc2Cl)c(Cl)c1 [compound 202] | 77
9 | COc1ccc(-c2c(C)nn(C)c2Nc2c(F)cc(F)cc2Cl)c(Cl)c1 [compound 203] | 100
10 | COc1ccc(-c2c(C)nn(C)c2Nc2c(F)cc(Cl)cc2F)c(Cl)c1 [compound 204] | 99
11 | COc1ccc(-c2c(C)nn(C)c2Nc2c(Cl)cc(F)cc2Cl)c(Cl)c1 [compound 205] | 31
12 | CCOc1ccc(-c2c(C)nn(C)c2Nc2c(F)cc(F)cc2Cl)c(Cl)c1 [compound 206] | 100

Tested on: Septoria tritici
Test: Test F: wheat leaf blotch, preventive spray on wheat seedlings, visual disease rating
Type: in vivo
Conditions: preventive spray, 100 = 100% disease control, rating without asterisk
Source text: (§1) A hyphen (-) indicates no test results.

Row | SMILES | Test F rating (% disease control) [%]
13 | Cc1nn(C)c(Nc2ccc(F)cc2I)c1-c1ccc(F)cc1Cl [compound 181] | 100
14 | Cc1nn(C)c(Nc2c(F)cc(Cl)cc2I)c1-c1ccc(F)cc1Cl [compound 182] | 100
15 | Cc1nn(C)c(Nc2ccc(Br)cc2Br)c1-c1ccc(F)cc1Cl [compound 183] | 100
16 | Cc1nn(C)c(Nc2ccc(Br)cc2Br)c1-c1ccc(F)cc1F [compound 184] | 100
17 | Cc1nn(C)c(Nc2c(Cl)cc(Cl)cc2I)c1-c1ccc(F)cc1Cl [compound 197] | 100
18 | CCOc1cc(F)c(-c2c(C)nn(C)c2Nc2c(F)cc(Cl)cc2Cl)c(F)c1 [compound 198] | 100
19 | COc1ccc(-c2c(C)nn(C)c2Nc2c(F)cc(Cl)cc2Cl)c(Cl)c1 [compound 201] | 100
20 | CCOc1ccc(-c2c(C)nn(C)c2Nc2c(F)cc(Cl)cc2Cl)c(Cl)c1 [compound 202] | 100
21 | COc1ccc(-c2c(C)nn(C)c2Nc2c(F)cc(F)cc2Cl)c(Cl)c1 [compound 203] | 100
22 | COc1ccc(-c2c(C)nn(C)c2Nc2c(F)cc(Cl)cc2F)c(Cl)c1 [compound 204] | 100
23 | COc1ccc(-c2c(C)nn(C)c2Nc2c(Cl)cc(F)cc2Cl)c(Cl)c1 [compound 205] | 100
24 | CCOc1ccc(-c2c(C)nn(C)c2Nc2c(F)cc(F)cc2Cl)c(Cl)c1 [compound 206] | 100

Tested on: Puccinia recondita f. sp. tritici
Test: Test G: wheat leaf rust, spray after inoculation (curative) on wheat seedlings, visual disease rating
Type: in vivo
Conditions: spray after inoculation, 100 = 100% disease control, rating without asterisk
Source text: as §1

Row | SMILES | Test G rating (% disease control) [%]
25 | Cc1nn(C)c(Nc2ccc(F)cc2I)c1-c1ccc(F)cc1Cl [compound 181] | 99
26 | Cc1nn(C)c(Nc2c(F)cc(Cl)cc2I)c1-c1ccc(F)cc1Cl [compound 182] | 100
27 | Cc1nn(C)c(Nc2ccc(Br)cc2Br)c1-c1ccc(F)cc1Cl [compound 183] | 54
28 | Cc1nn(C)c(Nc2ccc(Br)cc2Br)c1-c1ccc(F)cc1F [compound 184] | 0
29 | Cc1nn(C)c(Nc2c(Cl)cc(Cl)cc2I)c1-c1ccc(F)cc1Cl [compound 197] | 9
30 | CCOc1cc(F)c(-c2c(C)nn(C)c2Nc2c(F)cc(Cl)cc2Cl)c(F)c1 [compound 198] | 9
31 | COc1ccc(-c2c(C)nn(C)c2Nc2c(F)cc(Cl)cc2Cl)c(Cl)c1 [compound 201] | 98
32 | CCOc1ccc(-c2c(C)nn(C)c2Nc2c(F)cc(Cl)cc2Cl)c(Cl)c1 [compound 202] | 35
33 | COc1ccc(-c2c(C)nn(C)c2Nc2c(F)cc(F)cc2Cl)c(Cl)c1 [compound 203] | 79
34 | COc1ccc(-c2c(C)nn(C)c2Nc2c(F)cc(Cl)cc2F)c(Cl)c1 [compound 204] | 99
35 | COc1ccc(-c2c(C)nn(C)c2Nc2c(Cl)cc(F)cc2Cl)c(Cl)c1 [compound 205] | 0
36 | CCOc1ccc(-c2c(C)nn(C)c2Nc2c(F)cc(F)cc2Cl)c(Cl)c1 [compound 206] | 0

Tested on: Septoria nodorum
Test: Test E: Septoria glume blotch, preventive spray on wheat seedlings, visual disease rating
Conditions: Septoria glume blotch on wheat, preventive spray; 100 = 100% disease control; rating without asterisk

Row | SMILES | Test E rating (% disease control) [%]
37 | Cc1nn(C)c(Nc2ccc(F)cc2I)c1-c1ccc(F)cc1Cl [compound 181] | 99
38 | Cc1nn(C)c(Nc2c(F)cc(Cl)cc2I)c1-c1ccc(F)cc1Cl [compound 182] | 100
39 | Cc1nn(C)c(Nc2ccc(Br)cc2Br)c1-c1ccc(F)cc1Cl [compound 183] | 0
40 | Cc1nn(C)c(Nc2ccc(Br)cc2Br)c1-c1ccc(F)cc1F [compound 184] | 60
41 | Cc1nn(C)c(Nc2c(Cl)cc(Cl)cc2I)c1-c1ccc(F)cc1Cl [compound 197] | 0
42 | CCOc1cc(F)c(-c2c(C)nn(C)c2Nc2c(F)cc(Cl)cc2Cl)c(F)c1 [compound 198] | 60
43 | COc1ccc(-c2c(C)nn(C)c2Nc2c(F)cc(Cl)cc2Cl)c(Cl)c1 [compound 201] | 99
44 | CCOc1ccc(-c2c(C)nn(C)c2Nc2c(F)cc(Cl)cc2Cl)c(Cl)c1 [compound 202] | 0
45 | COc1ccc(-c2c(C)nn(C)c2Nc2c(F)cc(F)cc2Cl)c(Cl)c1 [compound 203] | 73
46 | COc1ccc(-c2c(C)nn(C)c2Nc2c(F)cc(Cl)cc2F)c(Cl)c1 [compound 204] | 99
47 | COc1ccc(-c2c(C)nn(C)c2Nc2c(Cl)cc(F)cc2Cl)c(Cl)c1 [compound 205] | 0
48 | CCOc1ccc(-c2c(C)nn(C)c2Nc2c(F)cc(F)cc2Cl)c(Cl)c1 [compound 206] | 99

Tested on: Botrytis cinerea
Test: Test A: tomato Botrytis, preventive spray on tomato seedlings, visual disease rating
Conditions: tomato Botrytis, preventive spray; 100 = 100% disease control, 0 = no control relative to controls; rating without asterisk

Row | SMILES | Test A rating (% disease control) [%]
49 | Cc1nn(C)c(Nc2ccc(F)cc2I)c1-c1ccc(F)cc1Cl [compound 181] | 100
50 | Cc1nn(C)c(Nc2c(F)cc(Cl)cc2I)c1-c1ccc(F)cc1Cl [compound 182] | 100
51 | Cc1nn(C)c(Nc2ccc(Br)cc2Br)c1-c1ccc(F)cc1Cl [compound 183] | 100
52 | Cc1nn(C)c(Nc2ccc(Br)cc2Br)c1-c1ccc(F)cc1F [compound 184] | 100
53 | Cc1nn(C)c(Nc2c(Cl)cc(Cl)cc2I)c1-c1ccc(F)cc1Cl [compound 197] | 100
54 | CCOc1cc(F)c(-c2c(C)nn(C)c2Nc2c(F)cc(Cl)cc2Cl)c(F)c1 [compound 198] | 100
55 | COc1ccc(-c2c(C)nn(C)c2Nc2c(F)cc(Cl)cc2Cl)c(Cl)c1 [compound 201] | 100
56 | CCOc1ccc(-c2c(C)nn(C)c2Nc2c(F)cc(Cl)cc2Cl)c(Cl)c1 [compound 202] | 99
57 | COc1ccc(-c2c(C)nn(C)c2Nc2c(F)cc(F)cc2Cl)c(Cl)c1 [compound 203] | 95
58 | COc1ccc(-c2c(C)nn(C)c2Nc2c(F)cc(Cl)cc2F)c(Cl)c1 [compound 204] | 99
59 | COc1ccc(-c2c(C)nn(C)c2Nc2c(Cl)cc(F)cc2Cl)c(Cl)c1 [compound 205] | 59
60 | CCOc1ccc(-c2c(C)nn(C)c2Nc2c(F)cc(F)cc2Cl)c(Cl)c1 [compound 206] | 99

Tested on: Puccinia recondita f. sp. tritici
Test: Test H: wheat leaf rust, preventive spray on wheat seedlings, visual disease rating
Conditions: wheat leaf rust, preventive spray; 100 = 100% disease control; rating without asterisk

Row | SMILES | Test H rating (% disease control) [%]
61 | Cc1nn(C)c(Nc2ccc(F)cc2I)c1-c1ccc(F)cc1Cl [compound 181] | 99
62 | Cc1nn(C)c(Nc2c(F)cc(Cl)cc2I)c1-c1ccc(F)cc1Cl [compound 182] | 100
63 | Cc1nn(C)c(Nc2ccc(Br)cc2Br)c1-c1ccc(F)cc1Cl [compound 183] | 96
64 | Cc1nn(C)c(Nc2ccc(Br)cc2Br)c1-c1ccc(F)cc1F [compound 184] | 98
65 | Cc1nn(C)c(Nc2c(Cl)cc(Cl)cc2I)c1-c1ccc(F)cc1Cl [compound 197] | 97
66 | CCOc1cc(F)c(-c2c(C)nn(C)c2Nc2c(F)cc(Cl)cc2Cl)c(F)c1 [compound 198] | 80
67 | COc1ccc(-c2c(C)nn(C)c2Nc2c(F)cc(Cl)cc2Cl)c(Cl)c1 [compound 201] | 100
68 | CCOc1ccc(-c2c(C)nn(C)c2Nc2c(F)cc(Cl)cc2Cl)c(Cl)c1 [compound 202] | 92
69 | COc1ccc(-c2c(C)nn(C)c2Nc2c(F)cc(F)cc2Cl)c(Cl)c1 [compound 203] | 100
70 | COc1ccc(-c2c(C)nn(C)c2Nc2c(F)cc(Cl)cc2F)c(Cl)c1 [compound 204] | 100
71 | COc1ccc(-c2c(C)nn(C)c2Nc2c(Cl)cc(F)cc2Cl)c(Cl)c1 [compound 205] | 99
72 | CCOc1ccc(-c2c(C)nn(C)c2Nc2c(F)cc(F)cc2Cl)c(Cl)c1 [compound 206] | 99

Tested on: Blumeria graminis f. sp. tritici
Test: Test I: wheat powdery mildew, preventive spray on wheat seedlings, visual disease rating
Conditions: wheat powdery mildew, preventive spray; 100 = 100% disease control; rating without asterisk

Row | SMILES | Test I rating (% disease control) [%]
73 | Cc1nn(C)c(Nc2ccc(F)cc2I)c1-c1ccc(F)cc1Cl [compound 181] | 100
74 | Cc1nn(C)c(Nc2c(F)cc(Cl)cc2I)c1-c1ccc(F)cc1Cl [compound 182] | 100
75 | Cc1nn(C)c(Nc2ccc(Br)cc2Br)c1-c1ccc(F)cc1Cl [compound 183] | 98
76 | Cc1nn(C)c(Nc2ccc(Br)cc2Br)c1-c1ccc(F)cc1F [compound 184] | 100
77 | Cc1nn(C)c(Nc2c(Cl)cc(Cl)cc2I)c1-c1ccc(F)cc1Cl [compound 197] | 94
78 | CCOc1cc(F)c(-c2c(C)nn(C)c2Nc2c(F)cc(Cl)cc2Cl)c(F)c1 [compound 198] | 96
79 | COc1ccc(-c2c(C)nn(C)c2Nc2c(F)cc(Cl)cc2Cl)c(Cl)c1 [compound 201] | 97
80 | CCOc1ccc(-c2c(C)nn(C)c2Nc2c(F)cc(Cl)cc2Cl)c(Cl)c1 [compound 202] | 95
81 | COc1ccc(-c2c(C)nn(C)c2Nc2c(F)cc(F)cc2Cl)c(Cl)c1 [compound 203] | 98
82 | COc1ccc(-c2c(C)nn(C)c2Nc2c(F)cc(Cl)cc2F)c(Cl)c1 [compound 204] | 100
83 | COc1ccc(-c2c(C)nn(C)c2Nc2c(Cl)cc(F)cc2Cl)c(Cl)c1 [compound 205] | 21
84 | CCOc1ccc(-c2c(C)nn(C)c2Nc2c(F)cc(F)cc2Cl)c(Cl)c1 [compound 206] | 100
